15 compounds from PubChem BioAssay AID248 (DTP/NCI, 2004) can be followed below.

In the assay the test system is L1210 leukemia ip in BDF1 mice, survival T/C. The experiment in a line: NCI In Vivo Anticancer Drug Screen. Data for tumor model L1210 Leukemia (intraperitoneal) in B6D2F1 (BDF1) mice. As to conditions: endpoint: mean survival time, higher = longer survival. In outline:
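Transplantable tumor model; survival measured in treated vs vehicle control mice. Value = treated/control.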

[1] abbreviates: dose: 100.0 mg/kg/injection, schedule: Q01DX009 (ip), vehicle: Klucel (hydroxypropylcellulose) (HPC).
[2] abbreviates: dose: 100.0 mg/kg/injection, schedule: Q04DX003 (ip), vehicle: Klucel (hydroxypropylcellulose) (HPC).
The mark [3] stands for this setting: dose: 200.0 mg/kg/injection, schedule: Q01DX009 (ip), vehicle: Klucel (hydroxypropylcellulose) (HPC).
[4] abbreviates: dose: 200.0 mg/kg/injection, schedule: Q04DX003 (ip), vehicle: Klucel (hydroxypropylcellulose) (HPC).
[5] abbreviates: dose: 400.0 mg/kg/injection, schedule: Q01DX009 (ip), vehicle: Klucel (hydroxypropylcellulose) (HPC).
[6] abbreviates: dose: 400.0 mg/kg/injection, schedule: Q04DX003 (ip), vehicle: Klucel (hydroxypropylcellulose) (HPC).
The mark [7] stands for this setting: dose: 100.0 mg/kg/injection, schedule: Q01DX001 (ip), vehicle: saline with Tween-80.
Where [8] appears, read: dose: 100.0 mg/kg/injection, schedule: Q01DX009 (ip), vehicle: saline with Tween-80.
Where [9] appears, read: dose: 100.0 mg/kg/injection, schedule: Q04DX003 (ip), vehicle: saline with Tween-80.
Where [10] appears, read: dose: 200.0 mg/kg/injection, schedule: Q01DX001 (ip), vehicle: saline with Tween-80.
Where [11] appears, read: dose: 200.0 mg/kg/injection, schedule: Q01DX009 (ip), vehicle: saline with Tween-80.
Where [12] appears, read: dose: 200.0 mg/kg/injection, schedule: Q04DX003 (ip), vehicle: saline with Tween-80.

“And” between values parts separate entries of the source, which are not always exact repeats. Equal values may be shown once. Inconclusive results and toxic doses are left out.

For the compound `CS(=O)(=O)c1ccc(/C=C2/C=Cc3ccccc32)cc1`, the T/C reads like this: under setting [1], 95 % of control; under setting [2], 96 % of control; under setting [3], 103 % of control; under setting [4], 96 % of control; under setting [5], 95 % of control; under setting [6], 98 % of control.
On to `Cc1[nH]c(N)nc(=S)c1CCCNc1ccc(C(=O)NC(CCC(=O)O)C(=O)O)cc1` (stereo not given), for which the T/C was 104 % of control (dose: 50.0 mg/kg/injection, schedule: Q01DX001 (ip), vehicle: saline); 98 % of control (dose: 100.0 mg/kg/injection, schedule: Q01DX001 (ip), vehicle: saline); 93 % of control under setting [1]; 93 % of control under setting [2]; 101 % of control (dose: 200.0 mg/kg/injection, schedule: Q01DX001 (ip), vehicle: saline); 104 % of control under setting [3]. Besides, the T/C under setting [4] is 93 % of control; the T/C (dose: 400.0 mg/kg/injection, schedule: Q01DX001 (ip), vehicle: saline) is 98 % of control; the T/C under setting [5] was 98 % of control; the T/C under setting [6] was 88 % of control.
For `O=[N+]([O-])c1ccc(OCC2CO2)cc1` (stereo not given), the T/C by setting is: (dose: 100.0 mg/kg/injection, schedule: Q04DX002 (ip), vehicle: gum acacia) 100 % of control; (dose: 200.0 mg/kg/injection, schedule: Q04DX002 (ip), vehicle: gum acacia) 117 % of control; (dose: 400.0 mg/kg/injection, schedule: Q04DX002 (ip), vehicle: gum acacia) 88 % of control.
With `O=Nc1c2cc3ccccc3[nH]c-2c2ccccc12`, the T/C by setting is: (dose: 50.0 mg/kg/injection, schedule: Q01DX001 (ip), vehicle: Klucel (hydroxypropylcellulose) (HPC)) 95 % of control; (dose: 100.0 mg/kg/injection, schedule: Q01DX001 (ip), vehicle: Klucel (hydroxypropylcellulose) (HPC)) 93 % of control; (dose: 200.0 mg/kg/injection, schedule: Q01DX001 (ip), vehicle: Klucel (hydroxypropylcellulose) (HPC)) 93 % of control.
Regarding `CC12CCC(OC3OC(CO)C(O)C(O)C3O)CC1CCC1C2CCC2(C)C(C3=CC(=O)OC3)CCC12O` (stereo not given), the T/C is 101 % of control (dose: 10.0 mg/kg/injection, schedule: Q01DX009 (ip), vehicle: saline); 96 % of control (dose: 20.0 mg/kg/injection, schedule: Q01DX009 (ip), vehicle: saline); 102 % of control (dose: 40.0 mg/kg/injection, schedule: Q01DX009 (ip), vehicle: saline).
Turning to `CC(=O)O[C@H]1[C@H]2O[C@]23[C@@H]2CC[C@]4(O)C[C@@H](O)CC[C@]4(C)[C@H]2CC[C@]3(C)[C@H]1c1ccc(=O)oc1`, the T/C runs as follows: (dose: 10.0 mg/kg/injection, schedule: Q01DX001 (ip), vehicle: other) 90 % of control; (dose: 20.0 mg/kg/injection, schedule: Q01DX001 (ip), vehicle: other) 100 % of control; (dose: 40.0 mg/kg/injection, schedule: Q01DX001 (ip), vehicle: other) 107 % of control; (dose: 100.0 mg/kg/injection, schedule: Q01DX001 (ip), vehicle: other) 94 % of control; (dose: 200.0 mg/kg/injection, schedule: Q01DX001 (ip), vehicle: other) 92 % of control.
Turning to `O=C(CCCl)Oc1c(Cl)c(Cl)c(Cl)c(Cl)c1Cl`, the T/C is 98 % of control (dose: 50.0 mg/kg/injection, schedule: Q01DX001 (ip), vehicle: saline with Tween-80); 111 % of control (dose: 50.0 mg/kg/injection, schedule: Q01DX009 (ip), vehicle: saline with Tween-80); 95 % of control (dose: 50.0 mg/kg/injection, schedule: Q04DX003 (ip), vehicle: saline with Tween-80); 96 % of control under setting [7]; 103 % of control under setting [8]; 97 % of control under setting [9]. In addition, the T/C was 100 % of control under setting [10], 100 % of control under setting [11] and 93 % of control under setting [12].
As for `O=C1c2ccccc2C(c2ccccc2)C1c1ccccc1` (stereo not given), the T/C is, setting by setting: (dose: 50.0 mg/kg/injection, schedule: Q04DX002 (ip), vehicle: Klucel (hydroxypropylcellulose) (HPC)) 108 % of control; (dose: 100.0 mg/kg/injection, schedule: Q04DX002 (ip), vehicle: Klucel (hydroxypropylcellulose) (HPC)) 94 % of control; (dose: 200.0 mg/kg/injection, schedule: Q04DX002 (ip), vehicle: Klucel (hydroxypropylcellulose) (HPC)) 94 % of control.
On to `COc1ccc(COC(=O)Nc2cccc(Cl)c2C)cc1`, for which the T/C under setting [7] is 90 % of control; the T/C under setting [8] was 97 % of control and 98 % of control; the T/C (dose: 100.0 mg/kg/injection, schedule: Q04DX002 (ip), vehicle: saline with Tween-80) is 95 % of control and 104 % of control; the T/C under setting [9] was 93 % of control; the T/C under setting [10] is 92 % of control; the T/C under setting [11] was 97 % of control and 89 % of control. The T/C reads like this: (dose: 200.0 mg/kg/injection, schedule: Q04DX002 (ip), vehicle: saline with Tween-80) 101 % of control and 87 % of control; under setting [12], 93 % of control; (dose: 400.0 mg/kg/injection, schedule: Q01DX001 (ip), vehicle: saline with Tween-80) 87 % of control; (dose: 400.0 mg/kg/injection, schedule: Q01DX009 (ip), vehicle: saline with Tween-80) 93 % of control; (dose: 400.0 mg/kg/injection, schedule: Q04DX002 (ip), vehicle: saline with Tween-80) 96 % of control and 101 % of control; (dose: 400.0 mg/kg/injection, schedule: Q04DX003 (ip), vehicle: saline with Tween-80) 96 % of control.
For the compound `O=C(Nc1ccc(Cl)c([N+](=O)[O-])c1)Oc1ccc2ccccc2c1`, the T/C reads like this: (dose: 100.0 mg/kg/injection, schedule: Q01DX009 (ip), vehicle: other) 92 % of control; (dose: 200.0 mg/kg/injection, schedule: Q01DX009 (ip), vehicle: other) 97 % of control; (dose: 400.0 mg/kg/injection, schedule: Q01DX009 (ip), vehicle: other) 107 % of control.
As for `O=C(C1CC=CCC1)N1CCCC1` (stereo not given), the T/C was 101 % of control (dose: 100.0 mg/kg/injection, schedule: Q04DX002 (ip), vehicle: saline); 104 % of control (dose: 200.0 mg/kg/injection, schedule: Q04DX002 (ip), vehicle: saline); 104 % of control (dose: 400.0 mg/kg/injection, schedule: Q04DX002 (ip), vehicle: saline).
For `COc1ccc(C(OC(=O)c2ccc([N+](=O)[O-])cc2)c2ccccc2)cc1` (stereo not given), the T/C is 88 % of control (dose: 100.0 mg/kg/injection, schedule: Q01DX001 (ip), vehicle: carboxymethylcellulose (CMC)); 91 % of control (dose: 200.0 mg/kg/injection, schedule: Q01DX001 (ip), vehicle: carboxymethylcellulose (CMC)); 93 % of control (dose: 400.0 mg/kg/injection, schedule: Q01DX001 (ip), vehicle: carboxymethylcellulose (CMC)).
As to `CC(=O)CC(=O)N1CCN(C(=O)CC(C)=O)CC1`, the T/C (dose: 100.0 mg/kg/injection, schedule: Q01DX009 (ip), vehicle: saline) is 100 % of control; the T/C (dose: 200.0 mg/kg/injection, schedule: Q01DX009 (ip), vehicle: saline) was 96 % of control; the T/C (dose: 400.0 mg/kg/injection, schedule: Q01DX009 (ip), vehicle: saline) is 100 % of control.
Consider `COc1ccc(OP(=O)(N2CC2)N2CC2)cc1`, for which the T/C is 120 % of control (dose: 75.0 mg/kg/injection, schedule: Q01DX Z (ip), vehicle: carboxymethylcellulose (CMC)) and 160 % of control (dose: 300.0 mg/kg/injection, schedule: Q01DX Z (ip), vehicle: carboxymethylcellulose (CMC)).
For the compound `CC(=O)Oc1cccc(C)c1`, the T/C is, setting by setting: under setting [8], 104 % of control; under setting [11], 106 % of control.
